Assay results taken from paper PMC10778980, “Profiling Novel Quinuclidine-Based Derivatives as Potential Anticholinesterase Drugs: Enzyme Inhibition and Effects on Cell Viability” (International Journal of Molecular Sciences, 2023).
Read-outs that look alike come from different tables or passages of the source.

Key:
human BChE = target: T1, human BChE (Homo sapiens, UniProt P06276); assay: biochemical
T1 construct: Plasma was removed and used as a source of BChE; from tissue; host or cells: human blood plasma from a healthy volunteer
T1 sequence (P06276 29-602): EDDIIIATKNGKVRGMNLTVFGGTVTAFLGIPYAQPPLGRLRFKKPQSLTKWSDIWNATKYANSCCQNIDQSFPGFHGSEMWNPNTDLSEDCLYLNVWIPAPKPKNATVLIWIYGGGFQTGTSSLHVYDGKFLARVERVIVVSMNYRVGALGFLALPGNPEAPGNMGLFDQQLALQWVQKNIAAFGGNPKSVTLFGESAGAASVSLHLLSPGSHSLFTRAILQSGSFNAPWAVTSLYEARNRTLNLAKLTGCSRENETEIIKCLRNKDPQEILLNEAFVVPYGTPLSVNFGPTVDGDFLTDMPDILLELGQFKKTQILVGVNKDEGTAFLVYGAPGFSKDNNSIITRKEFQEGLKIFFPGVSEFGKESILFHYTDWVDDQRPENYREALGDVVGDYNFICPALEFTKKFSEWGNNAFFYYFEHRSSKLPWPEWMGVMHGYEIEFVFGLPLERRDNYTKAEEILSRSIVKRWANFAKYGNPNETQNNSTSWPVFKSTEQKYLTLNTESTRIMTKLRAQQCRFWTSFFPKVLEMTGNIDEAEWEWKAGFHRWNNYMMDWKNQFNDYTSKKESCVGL
Source text: (§1) Cholinesterase substrate acetylthiocholine (ATCh) and the thiol reagent 5,5′-dithiobis(2-nitrobenzoic acid) (DTNB) for the enzyme activity measurement were purchased from Sigma-Aldrich (St. Louis, MO, USA). The sources of human AChE and BChE were native erythrocytes and plasma, respectively, obtained from the blood of a healthy volunteer and in accordance with the approval of the Ethics Committee of the Institute for Medical Research and Occupational Health (approval number: 100-21/23-6). Erythrocytes and plasma were isolated from the whole blood and prepared according to a previously published procedure. Namely, venous blood was collected into a heparinized tube and centrifuged (at 4 °C, 20 min on 2500 rpm, Eppendorf centrifuge 5702R) to separate plasma from the erythrocytes. Plasma was removed and used as a source of BChE, while erythrocytes were washed twice with the 0.1 M sodium phosphate buffer, pH 7.4, in a volume corresponding to the initial volume of the whole blood. Both plasma and erythrocytes were frozen at −20 °C until use. Quinuclidine compounds were dissolved in dH2O as 10 or 100 mM; exceptionally, 3-hydroxyimino compounds with longer chains (C12−C16) were dissolved in DMSO as 100 mM solutions. Stock solutions were kept at 4 °C until use. Further dilutions were made in distilled water.
(§2) The reversible inhibition experiments followed a previously published procedure. Namely, the enzyme activity was measured in the presence of a wide range of quinuclidine compound concentrations and in the substrate range from 0.1 to 0.5 mM to confirm the type of compound binding. The activity was assayed following the Ellman’s procedure, with the modification in the wavelength used for detection of the TNB anion in the case of AChE activity measurement due to the interference of the hemoglobin, and according to Worek et al.. The assay was performed in 96-well plates on an Infinite M200PRO plate reader (Tecan Austria GmbH, Salzburg, Austria) at 25 °C. Each concentration was tested in triplicate or quadruplicate on each plate. The inhibition mixture contained 0.1 M sodium phosphate buffer, pH 7.4, enzyme (AChE or BChE), quinuclidine compound (0.2–400 μM final), DTNB (0.3 mM final), and ATCh (from 0.1 to 0.5 mM final) to start the reaction. The increase in absorbance was read at 436 nm for AChE and at 412 nm for BChE. The measured activity in the presence of compounds was corrected for the non-enzymatic hydrolysis of substrate ATCh, if detected. The reversible enzyme–quinuclidine complex dissociation constants (the inhibition constants) Ki were evaluated from the effect of the substrate concentration on the degree of inhibition according to the Hunter–Downs equation as described previously, taking into account only quinuclidine concentrations where 20–80% inhibition of the activity was observed.

SH-SY5Y cells = assay: Cytotoxicity assay (MTS) on SH-SY5Y; assay type: cell-based; conditions: Homo sapiens
Experimental: (§3) SH-SY5Y cells were grown in DMEM F12 (Sigma-Aldrich, St. Louis, MO, USA) supplemented with 15% (v/v) fetal bovine serum (FBS), 2 mM glutamine, and 1% (v/v) non-essential amino acids (NEAA). HepG2 cells were grown in EMEM supplemented with 10% (v/v) FBS, 2 mM glutamine, and 1% (v/v) non-essential amino acids NEAA. All media and supplements were purchased from Sigma-Aldrich, Steinheim, Germany.
(§4) The procedure followed a previously described protocol.

HepG2 cells = assay: Cytotoxicity assay (MTS) on HepG2; assay type: cell-based; conditions: Homo sapiens
Experimental: as §3, §4

human AChE = target: T2, human AChE (Homo sapiens, UniProt P22303); assay: Reversible inhibition of AChE (Ellman's procedure, Hunter–Downs evaluation); assay type: biochemical; conditions: for Ki: Ki ± standard error, 0.1, 0.2, 0.35 and 0.5 mM substrate ATCh, 25 °C, pH 7.4; for Ki (AChE)/Ki (BChE): selectivity ratio
T2 construct: The sources of human AChE and BChE were native erythrocytes and plasma, respectively; from tissue; host or cells: human erythrocytes from venous blood of a healthy volunteer
T2 sequence (P22303 32-617 isoform P22303-2 limits assumed): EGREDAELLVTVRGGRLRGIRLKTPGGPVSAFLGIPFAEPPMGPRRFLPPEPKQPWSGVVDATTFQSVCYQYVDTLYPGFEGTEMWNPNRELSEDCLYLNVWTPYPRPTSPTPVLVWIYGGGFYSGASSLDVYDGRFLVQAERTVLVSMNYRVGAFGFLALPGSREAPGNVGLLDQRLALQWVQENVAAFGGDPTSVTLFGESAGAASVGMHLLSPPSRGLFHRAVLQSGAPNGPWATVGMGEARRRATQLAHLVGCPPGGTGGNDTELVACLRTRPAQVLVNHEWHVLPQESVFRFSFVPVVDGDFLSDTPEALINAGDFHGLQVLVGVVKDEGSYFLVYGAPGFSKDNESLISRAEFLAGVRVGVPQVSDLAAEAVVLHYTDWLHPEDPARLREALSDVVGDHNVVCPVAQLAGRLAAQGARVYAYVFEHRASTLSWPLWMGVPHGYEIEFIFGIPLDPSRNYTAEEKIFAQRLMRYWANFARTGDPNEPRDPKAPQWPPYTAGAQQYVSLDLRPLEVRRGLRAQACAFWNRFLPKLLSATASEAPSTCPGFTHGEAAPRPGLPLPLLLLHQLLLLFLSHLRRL
Source text: as §1, §2

[1] = Ki ± standard error, 0.1, 0.2, 0.35 and 0.5 mM substrate ATCh, 25 °C, pH 7.4, read-out: Ki BChE
[2] = 4 h exposure, read-out: IC50 ± SE SH-SY5Y 4 h
[3] = 24 h exposure, read-out: IC50 ± SE SH-SY5Y 24 h
[4] = read-out: IC50 ± SE SH-SY5Y 1 h, 1 h exposure
[5] = HepG2, read-out: IC50 ± SE HepG2 1 h, 1 h exposure
[6] = HepG2, 4 h exposure, read-out: IC50 ± SE HepG2 4 h
[7] = HepG2, 24 h exposure, read-out: IC50 ± SE HepG2 24 h

SMILES	Ki (human BChE; [1])	IC50 (SH-SY5Y cells; [2])	IC50 (SH-SY5Y cells; [3])	IC50 (SH-SY5Y cells; [4])	IC50 (HepG2 cells; [5])	IC50 (HepG2 cells; [6])	IC50 (HepG2 cells; [7])	Ki (human AChE)	Ki (AChE)/Ki (BChE) (human AChE)	Ki (human BChE)	times less efficient than donepezil (human AChE; AChE Ki compared to donepezil)
OC1C[N+]2(CCCCCCCC[N+]34CCC(CC3)C(O)C4)CCC1CC2 (stereo not shown) [Compound 6, 1,1′-(octano)bis(3-hydroxyquinuclidinium bromide)]	12.9 ± 1 µM	≥ 800 µM	≥ 800 µM	≥ 800 µM	≥ 800 µM	≥ 800 µM	≥ 800 µM	24 ± 1.1 µM	1.9		
OC1C[N+]2(CCCCCCCCCC[N+]34CCC(CC3)C(O)C4)CCC1CC2 (stereo not shown) [Compound 7, 1,1’-(decano)bis(3-hydroxyquinuclidinium bromide)]	1.6 ± 0.2 µM	≥ 800 µM	≥ 800 µM	≥ 800 µM	≥ 800 µM	≥ 800 µM	≥ 800 µM	0.52 ± 0.05 µM	0.3		
CCCCCCCC[N+]12CCC(CC1)C(=NO)C2.[Br-] [Compound 8, 1-octyl-3-hydroxyiminoquinuclidinium bromide]		≥ 800 µM	≥ 800 µM	≥ 800 µM	≥ 800 µM	≥ 800 µM	≥ 800 µM	82.7 ± 3.5 µM	2.2	37.9 ± 10.4 µM	
CCCCCCCCCC[N+]12CCC(CC1)C(=NO)C2.[Br-] [Compound 9, 1-decyl-3-hydroxyiminoquinuclidinium bromide]		≥ 800 µM	≥ 800 µM	≥ 800 µM	≥ 800 µM	≥ 800 µM	≥ 800 µM	23.8 ± 0.8 µM	4.6	5.2 ± 1.1 µM	
ON=C1C[N+]2(CCCCCCCC[N+]34CCC(CC3)C(=NO)C4)CCC1CC2 [Compound 13, 1,1’-(octano)bis(3-hydroxyiminoquinuclidinium bromide)]	3.4 ± 0.2 µM	≥ 800 µM	≥ 800 µM	≥ 800 µM	≥ 800 µM	≥ 800 µM	≥ 800 µM	1.8 ± 0.07 µM	0.5		
ON=C1C[N+]2(CCCCCCCCCC[N+]34CCC(CC3)C(=NO)C4)CCC1CC2 [Compound 14, 1,1’-(decano)bis(3-hydroxyiminoquinuclidinium bromide)]	1.2 ± 0.06 µM	≥ 800 µM	≥ 800 µM	≥ 800 µM	≥ 800 µM	≥ 800 µM	≥ 800 µM	0.26 ± 0.02 µM	0.2		around 60
